According to PubChem BioAssay (NCI):
Values joined by “and” are separate entries in the source; they are usually repeats but may differ in a detail not shown here. Equal values may be shown once.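 96-well plates; 48 h exposure; 5 concentrations. Endpoints by linear interpolation between flanking doses. Not reached: highest tested concentration assigned. GI50: concentration for 50% inhibition of growth. At the TGI there is no net growth.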

Columns and labels:
Assay in all cases: growth of human tumour cells (NCI), 48 h
SNB-75 CNS = tested on: SNB-75 CNS
SNB-19 CNS = tested on: SNB-19 CNS
UO-31 renal = tested on: UO-31 renal
SW-620 colon = tested on: SW-620 colon
MALME-3M melanoma = tested on: MALME-3M melanoma
SK-MEL-5 melanoma = tested on: SK-MEL-5 melanoma
NCI-H226 lung = tested on: NCI-H226 lung
SK-MEL-28 melanoma = tested on: SK-MEL-28 melanoma
M14 melanoma = tested on: M14 melanoma
HL-60(TB) leukemia = tested on: HL-60(TB) leukemia

Compound	GI50 (SNB-75 CNS)	TGI (SNB-75 CNS)	GI50 (SNB-19 CNS)	TGI (SNB-19 CNS)	GI50 (UO-31 renal)	TGI (UO-31 renal)	GI50 (SW-620 colon)	TGI (SW-620 colon)	GI50 (MALME-3M melanoma)	TGI (MALME-3M melanoma)	GI50 (SK-MEL-5 melanoma)	TGI (SK-MEL-5 melanoma)	GI50 (NCI-H226 lung)	TGI (NCI-H226 lung)	GI50 (SK-MEL-28 melanoma)	TGI (SK-MEL-28 melanoma)	GI50 (M14 melanoma)	TGI (M14 melanoma)	GI50 (HL-60(TB) leukemia)	TGI (HL-60(TB) leukemia)
CN(C)CCCN(CCC1CCCCC1)CCC1CCCCC1	1.8 µM	6.5 µM	5.63 µM	18.8 µM	1.38 µM	4.24 µM	1.75 µM	3.31 µM	1.83 µM	3.77 µM	0.545 µM	2.14 µM	12.1 µM	26.7 µM	0.593 µM	1.18 µM	1.87 µM	3.66 µM	2.09 µM	9.88 µM
Cc1ccc2oc(=O)cc(/C(=C3/C=CC=N3)c3ccc[nH]3)c2c1	0.335 µM	4.46 µM	0.355 µM	4.94 µM	0.45 µM	5.11 µM	0.396 µM	13.7 µM	0.782 µM	3.82 µM	0.356 µM	1.29 µM	0.753 µM	4.58 µM	0.611 µM	3.46 µM	0.209 µM	0.548 µM	0.271 µM	0.717 µM
O=C1C(=C(C(F)(F)Cl)C(F)(F)Cl)C2CCC1C2 (centres undefined)		> 10 µM		> 10 µM		> 6.47 µM		3.98 µM		3.2 µM		3.11 µM		> 9.06 µM		3.96 µM		2.38 µM		> 3.16 µM
Cn1c(=O)c(Oc2ccc(F)cc2F)cc2cnc(NC(C)(C)CO)nc21	> 25 µM	> 25 µM	> 25 µM	> 25 µM	6.65 µM	> 13.4 µM	> 25 µM	> 25 µM	> 25 µM	> 25 µM	> 25 µM	> 25 µM	> 25 µM	> 25 µM	> 25 µM	> 25 µM	> 25 µM	> 25 µM	> 25 µM	> 25 µM
COC(=O)c1ccc2c(c1)C(=O)c1c-2n(CCCCl)c(=O)c2cc([N+](=O)[O-])ccc12	61.7 µM	> 100 µM	56.6 µM	> 100 µM	49.1 µM	> 100 µM	44.6 µM	> 100 µM	> 100 µM	> 100 µM	85.7 µM	> 100 µM	> 100 µM	> 100 µM	> 100 µM	> 100 µM	82.5 µM	> 100 µM	> 100 µM	> 100 µM
COc1ccc(/C(=N\NC(=O)NN)C(c2ccc(OC)cc2)C2(O)C(=O)Nc3c(Cl)cc(Cl)cc32)cc1 (centres undefined)		> 100 µM		> 100 µM		> 100 µM		> 100 µM		> 100 µM		> 100 µM		> 100 µM		> 100 µM		> 100 µM		> 100 µM
C[C@H]1/C(=C/C(=O)OCCN(C)C)CC[C@H]2[C@H]1C(=O)C[C@H]1C(C)(C)[C@@H](O)CC[C@]21C	> 100 µM	> 100 µM		> 100 µM		> 100 µM		> 100 µM		> 100 µM		> 100 µM		> 100 µM		> 100 µM		> 100 µM		> 100 µM
COc1ccc(C#Cc2ccc(=O)oc2-c2cc(OC)c(OC)c(OC)c2)cc1O	5.52 µM	27.8 µM	18 µM	> 100 µM	11.1 µM	> 79.8 µM	1.22 µM	> 100 µM	10.2 µM	> 83.7 µM	0.654 µM	> 46.1 µM	> 34 µM	> 100 µM	18.2 µM	> 100 µM	4.33 µM	> 51.6 µM	2.13 µM	17.4 µM
CC(=O)/C(=C/c1ccccc1)C(=O)CC(C)C	21.2 µM	42.4 µM	12.7 µM	26.2 µM	10.5 µM	22.6 µM	2.14 µM	4.63 µM	16.7 µM	37.3 µM	13.5 µM	26.9 µM	25.1 µM	71.4 µM	11.5 µM	24.9 µM	10.8 µM	24.3 µM	22.1 µM	90.2 µM
CCCCC(CCCCCC(CCCC)NCc1ccc2c(c1)OCO2)NCc1ccc2c(c1)OCO2 (centres undefined)	1.46 µM	2.78 µM	1.3 µM	2.59 µM	0.481 µM	1.16 µM	0.206 µM	0.437 µM	1.09 µM	2.56 µM	0.758 µM	2 µM	1.91 µM	4.02 µM	0.188 µM	0.337 µM	0.182 µM	0.324 µM	0.458 µM	1.21 µM
CC/C=C\C[C@H](F)C/C=C1/C(=O)C=C[C@@H]1C/C=C\CCCC(=O)OC	5.64 µM	11.7 µM	2.35 µM	9.23 µM	2.13 µM	9.72 µM	1.62 µM	4.73 µM	2.03 µM	8.7 µM	1.29 µM	3.13 µM	22.2 µM	44.6 µM	1.52 µM	4.94 µM	1.65 µM	5.8 µM	1.52 µM	6.29 µM
CCCCCCCCCCCCCCCCCc1nccn1CCOCCO	4.88 µg/mL	9.7 µg/mL	5.03 µg/mL	10.3 µg/mL	5.68 µg/mL	11.6 µg/mL	6.19 µg/mL	11.7 µg/mL	6.5 µg/mL	13.2 µg/mL	4.87 µg/mL	9.61 µg/mL	4.36 µg/mL	10 µg/mL	6.22 µg/mL	11.4 µg/mL	6.69 µg/mL	13 µg/mL	7.56 µg/mL	15.2 µg/mL
C[C@@]1(C(=O)O)CCC[C@]2(C)C1CC[C@@]13C[C@@](O)(CC[C@]12O)[C@@]1(CO1)C3 (some centres undefined)	> 100 µM	> 100 µM	> 100 µM	> 100 µM	> 100 µM	> 100 µM	> 100 µM	> 100 µM	> 100 µM	> 100 µM	> 100 µM	> 100 µM	> 100 µM	> 100 µM	> 100 µM	> 100 µM	> 100 µM	> 100 µM	> 100 µM	> 100 µM
COc1cc(Oc2c(C)c(Cl)c(OC)c(Cl)c2OC)c2c(c1Cl)COC2=O		> 100 µM		> 100 µM		> 100 µM		> 100 µM		> 100 µM		49.2 µM		> 100 µM		> 100 µM		> 100 µM		31.6 µM
O=c1oc2ccc(I)cc2c(=O)n1-c1ccc(F)cc1F	1.26 µM	3.96 µM	2.63 µM	> 100 µM	1.48 µM	5.71 µM	2.73 µM	11.6 µM	1.94 µM	5.89 µM	1.53 µM	3.03 µM	2.41 µM	12.7 µM	1.76 µM	6.25 µM	1.71 µM	5.88 µM	2.04 µM	5.12 µM
CC(C)N1CCN(c2ccncc2S(=O)(=O)N2CCCCC2)CC1		> 100 µM		> 100 µM		> 100 µM		> 100 µM		> 100 µM		> 100 µM		> 100 µM		> 100 µM		> 100 µM		> 100 µM
O=C1/C=C/[C@@H](O)[C@@H]2C[C@@H](O)C[C@H]2/C=C/CCC[C@H](CCc2cccc3ccccc23)O1	0.0358 µM	14.5 µM	0.0923 µM	22 µM	0.046 µM	12.3 µM	0.0518 µM	0.451 µM	0.036 µM	0.245 µM	0.0171 µM	0.0326 µM	0.0178 µM	0.0351 µM	0.0313 µM	0.163 µM	0.0492 µM	8.58 µM	0.0923 µM	0.366 µM
Oc1ccc(Nc2ccc3ccccc3c2)cc1	2.78 µM	35.9 µM	20.4 µM	> 100 µM	1.6 µM	9.49 µM	5.86 µM	19.5 µM	3.45 µM	13.4 µM	3.11 µM	11.2 µM	19 µM	49.5 µM	14.1 µM	> 100 µM	5.01 µM	23.4 µM	2.66 µM	21.3 µM
O=C(Nc1cccc2c1C(=O)c1c(NC(=O)c3ccccc3)ccc(Nc3cccc4c3C(=O)c3ccccc3C4=O)c1C2=O)c1ccccc1		> 100 µM		> 100 µM		> 100 µM		> 100 µM		> 100 µM		> 100 µM		> 100 µM		> 100 µM		> 100 µM		> 100 µM
CCCc1n(Cc2ccc3ccccc3c2)cc[n+]1Cc1ccc2ccccc2c1	0.514 µM	3.04 µM	0.869 µM	2.26 µM	2.56 µM	11.6 µM	1.34 µM	3.33 µM	0.876 µM	2.58 µM	0.485 µM	1.62 µM	1.31 µM	3.92 µM	1.06 µM	2.52 µM	1.1 µM	2.53 µM	0.321 µM	1.17 µM
COc1cc(-c2nccc3cc(OC)c(OC)cc23)ccc1O		> 100 µM		> 100 µM		> 100 µM		> 100 µM		> 100 µM		> 100 µM		> 100 µM		> 100 µM		> 100 µM		67.4 µM
O=C(O)C[C@@H](Cl)[C@H](NC(=O)OCc1ccccc1)C(=O)O		> 100 µM		> 100 µM		> 100 µM		> 100 µM		> 100 µM		> 100 µM		> 100 µM		> 100 µM		> 100 µM		> 100 µM
C=C1CC2(CC(c3ccccc3Cl)OC(c3ccccc3Cl)C2)OC1=O (centres undefined)		8.41 µM		29.5 µM		11.7 µM		5.21 µM		8.19 µM		10.4 µM		21.3 µM		3.65 µM		3.39 µM		12.1 µM
CSCS(=O)C[C@H](CO)NC(=O)/C=C/c1c(C)[nH]c(=O)[nH]c1=O (some centres undefined)	1.14 µM	4.15 µM and 1.03 µM	0.605 µM	8.35 µM and 5.11 µM	2.97 µM	10.2 µM and 4.26 µM	3.35 µM	> 54.6 µM and 25.4 µM	1.08 µM	3.08 µM and 2.05 µM	1.7 µM	5.07 µM and 5.39 µM		3.42 µM	1.89 µM	7.94 µM and 3.51 µM		2.79 µM	2.23 µM	4.96 µM and 3.44 µM
COc1cc(C2CC(c3cccc(Nc4ccnc5cc(Cl)ccc45)c3)=NN2c2ccc(Cl)cc2)cc(OC)c1OC (centres undefined)	2.22 µM	> 100 µM	30.3 µM	> 100 µM	0.489 µM	15.3 µM	0.666 µM	> 100 µM	21.9 µM	> 100 µM	1.37 µM	4.05 µM	8.45 µM	> 100 µM	4.54 µM	> 100 µM	0.63 µM	13.8 µM	4.18 µM	> 100 µM
COC1C(O)CC(OC2CC(OC3CC(O[C@@H]4C(=O)c5c(cc6cc(OC7CC(OC8CC(O)C(O)C(C)O8)C(O)C(C)O7)c(C)c(O)c6c5O)CC4[C@H](OC)C(=O)O)OC(C)C3O)OC(C)C2O)OC1C (some centres undefined)	1.03 µM	7.89 µM	1.68 µM	> 33.3 µM	1.11 µM	> 33.3 µM	2.52 µM	> 33.3 µM	2.37 µM	28.6 µM	1.34 µM	8.74 µM	1.15 µM	9.72 µM	1.48 µM	11.7 µM	3.14 µM	> 33.3 µM	5.53 µM	> 33.3 µM
C=C(CN1CCN(c2ccc(C(F)(F)F)cc2)CC1)c1ccc(C(=O)Nc2ccccc2N)cc1	12.4 µM	51.8 µM	12.5 µM	73.5 µM	0.967 µM	> 73.1 µM	> 78.8 µM	> 100 µM	19.3 µM	> 100 µM	4.43 µM	> 100 µM	7.51 µM	> 60.5 µM	> 100 µM	> 100 µM	> 90.5 µM	> 100 µM	0.0732 µM	0.279 µM
Cc1cccc(-n2c(N)c(-c3nc4ccccc4[nH]3)sc2=S)c1		> 100 µM		> 100 µM		87.8 µM		99.2 µM		74.4 µM		46.7 µM		73.9 µM		> 100 µM		48.4 µM		64 µM
